PMC3383625 (Chemistry & biology, 2012)
“And” between values parts separate entries of the source, which are not always exact repeats. Equal values may be shown once. Read-outs that look alike come from different tables or passages of the source. rhodamine = not defined here

Key:
[1] = biological target: T1, Nox2 (Homo sapiens, UniProt P04839); test: Cell-free assay for Nox2-dependent superoxide generation; assay type: biochemical
Target sequence in this assay (P04839 2-570 limits assumed, one chain of several): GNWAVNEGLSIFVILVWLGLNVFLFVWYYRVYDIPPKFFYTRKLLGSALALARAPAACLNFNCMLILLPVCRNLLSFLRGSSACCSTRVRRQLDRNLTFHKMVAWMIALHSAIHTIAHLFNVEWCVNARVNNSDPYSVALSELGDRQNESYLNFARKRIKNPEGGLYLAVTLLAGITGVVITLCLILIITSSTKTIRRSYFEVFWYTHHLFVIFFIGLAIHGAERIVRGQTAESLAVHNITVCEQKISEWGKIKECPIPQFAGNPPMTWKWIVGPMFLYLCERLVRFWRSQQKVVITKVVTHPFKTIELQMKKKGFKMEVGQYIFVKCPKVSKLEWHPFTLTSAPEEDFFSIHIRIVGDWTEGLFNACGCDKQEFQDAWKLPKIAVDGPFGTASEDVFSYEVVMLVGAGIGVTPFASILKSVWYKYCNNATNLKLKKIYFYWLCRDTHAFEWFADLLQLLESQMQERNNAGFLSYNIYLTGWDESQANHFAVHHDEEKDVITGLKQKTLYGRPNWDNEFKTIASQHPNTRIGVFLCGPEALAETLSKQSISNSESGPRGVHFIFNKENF

[2] = biological target: T1, Nox2; test: Nox2 activity in intact PMA-stimulated neutrophils; assay type: cell-based
Target sequence in this assay (P04839 2-570 limits assumed, one chain of several): as above

[3] = biological target: T2, bis-SH3 domain of p47phox (binding of the PRD of p22phox) (Homo sapiens, UniProt P14598); test: Fluorescence polarization
T2 sequence (P14598 156-285): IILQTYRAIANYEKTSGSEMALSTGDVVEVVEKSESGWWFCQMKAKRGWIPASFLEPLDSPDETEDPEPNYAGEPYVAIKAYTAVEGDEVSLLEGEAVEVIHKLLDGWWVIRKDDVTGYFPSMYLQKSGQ

[4] = biological target: Nox1 (Homo sapiens, UniProt Q9Y5S8); test: Nox1 activity in whole cells
Sequence of Nox1 (Q8NFA2 whole entry partner): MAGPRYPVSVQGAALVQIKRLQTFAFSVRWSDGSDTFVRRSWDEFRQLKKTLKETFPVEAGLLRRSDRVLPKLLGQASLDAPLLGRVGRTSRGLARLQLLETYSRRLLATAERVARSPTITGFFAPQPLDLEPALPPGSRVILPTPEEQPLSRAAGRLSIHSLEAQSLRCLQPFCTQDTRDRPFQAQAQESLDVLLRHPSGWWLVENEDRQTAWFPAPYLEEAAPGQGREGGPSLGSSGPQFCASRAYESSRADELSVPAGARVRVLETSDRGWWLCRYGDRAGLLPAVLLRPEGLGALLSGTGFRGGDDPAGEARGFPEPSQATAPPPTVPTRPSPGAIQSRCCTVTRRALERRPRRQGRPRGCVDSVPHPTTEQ
Sequence of Nox1 (Q9Y5S8 whole entry): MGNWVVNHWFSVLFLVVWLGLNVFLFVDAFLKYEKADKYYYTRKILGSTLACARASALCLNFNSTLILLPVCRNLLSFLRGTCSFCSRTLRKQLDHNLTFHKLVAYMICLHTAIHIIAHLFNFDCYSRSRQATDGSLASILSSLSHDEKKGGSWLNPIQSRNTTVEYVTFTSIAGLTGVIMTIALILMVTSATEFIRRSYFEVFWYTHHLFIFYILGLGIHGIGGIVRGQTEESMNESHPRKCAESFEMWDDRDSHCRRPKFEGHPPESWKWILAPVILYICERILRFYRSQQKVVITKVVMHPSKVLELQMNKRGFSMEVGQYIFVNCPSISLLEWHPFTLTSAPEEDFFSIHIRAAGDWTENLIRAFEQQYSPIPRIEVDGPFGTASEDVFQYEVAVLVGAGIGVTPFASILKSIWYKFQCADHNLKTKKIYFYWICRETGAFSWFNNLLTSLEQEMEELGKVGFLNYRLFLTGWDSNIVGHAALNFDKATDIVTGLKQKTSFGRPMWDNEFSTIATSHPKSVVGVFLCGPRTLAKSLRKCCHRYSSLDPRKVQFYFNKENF

[5] = biological target: T3, Nox4 (Homo sapiens, UniProt Q9NPH5); test: Nox4 activity in whole cells; assay type: cell-based; details: read-out: EC50 for inhibition of Nox4 activity in whole cell assay; HEK/Nox4rb cells; ns = no significant inhibition
T3 sequence (Q9NPH5 1-578): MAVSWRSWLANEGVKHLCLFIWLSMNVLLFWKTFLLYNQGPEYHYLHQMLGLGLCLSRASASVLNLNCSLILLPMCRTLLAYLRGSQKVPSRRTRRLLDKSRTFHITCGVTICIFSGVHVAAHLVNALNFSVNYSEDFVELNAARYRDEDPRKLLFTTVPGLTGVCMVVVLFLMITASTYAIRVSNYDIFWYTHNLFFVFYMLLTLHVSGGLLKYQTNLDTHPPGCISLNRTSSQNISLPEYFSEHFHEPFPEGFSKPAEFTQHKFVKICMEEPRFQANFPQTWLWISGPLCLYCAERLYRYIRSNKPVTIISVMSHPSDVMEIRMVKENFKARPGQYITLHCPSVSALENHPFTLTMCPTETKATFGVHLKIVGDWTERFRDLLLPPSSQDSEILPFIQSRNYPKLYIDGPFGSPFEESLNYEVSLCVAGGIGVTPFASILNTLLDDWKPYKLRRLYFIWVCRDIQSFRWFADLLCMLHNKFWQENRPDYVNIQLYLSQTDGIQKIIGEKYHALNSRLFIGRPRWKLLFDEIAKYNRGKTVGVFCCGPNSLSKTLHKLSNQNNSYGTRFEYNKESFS
T3 sequence (P13498 2-195 partner limits assumed): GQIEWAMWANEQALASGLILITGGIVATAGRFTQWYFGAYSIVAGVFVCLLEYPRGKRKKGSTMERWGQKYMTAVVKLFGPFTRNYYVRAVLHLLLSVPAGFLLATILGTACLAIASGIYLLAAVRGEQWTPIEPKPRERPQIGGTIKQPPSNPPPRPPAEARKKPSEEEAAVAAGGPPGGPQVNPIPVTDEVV

[6] = test system: Kupffer cells; details: read-out: IC50 for reactive oxygen by luminol luminescence; ref Wang et al.,1992; cited from earlier work
[7] = test system: protein-kinase-C-mediated phosphorylation of p47phox; test: PKC-mediated phosphorylation of p47phox in neutrophils; assay type: cell-based, human; details: 10 μM ebselen
[8] = ref Muller et al.,1984; cited from earlier work
[9] = test system: p47phox and p67phox translocation in neutrophils; assay type: cell-based, human; details: 10 μM ebselen
[10] = test system: guinea pig alveolar macrophages; details: read-out: IC50 for inhibition in guinea pig macrophages; ref Leurs et al.,1989; cited from earlier work
[11] = biological target: T4, binding of MBP-p22-C and GST-p47-bis-SH3 (Homo sapiens, UniProt P14598); test: Pull-down assay of MBP-p22-C with GST-p47-bis-SH3 on glutathione agarose beads; details: 20 μM ebselen
T4 sequence (P14598 156-285): T2 sequence (P14598 156-285)

[12] = biological target: T5, p67phox-p47phox association (Homo sapiens, UniProt P14598); test: Co-immunoprecipitation of p67phox with p47phox in PMA-stimulated neutrophils; assay type: cell-based; details: 10 μM ebselen, PMA-stimulated cells
T5 sequence (P14598 1-390): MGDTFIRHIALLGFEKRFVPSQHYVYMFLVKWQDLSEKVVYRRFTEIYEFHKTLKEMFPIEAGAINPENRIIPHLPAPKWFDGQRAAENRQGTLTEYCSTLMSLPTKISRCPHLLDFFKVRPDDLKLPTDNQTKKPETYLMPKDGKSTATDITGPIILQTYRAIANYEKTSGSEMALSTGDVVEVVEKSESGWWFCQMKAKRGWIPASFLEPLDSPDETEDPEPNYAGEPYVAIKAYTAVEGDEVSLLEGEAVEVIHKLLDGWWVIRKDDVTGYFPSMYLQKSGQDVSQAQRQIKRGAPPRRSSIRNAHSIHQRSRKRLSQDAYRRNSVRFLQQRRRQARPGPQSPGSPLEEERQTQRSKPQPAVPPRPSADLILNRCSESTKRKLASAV

[13] = test system: PKC; details: ref Cotgreave et al.,1989; cited from earlier work
[14] = biological target: T6, GST-tagged p47phox-bis-SH3 domain (GST-p47-bis-SH3) (human, UniProt P14598 156-285); test: fluorescence polarisation
T6 sequence (looked up): T2 sequence (P14598 156-285)

[15] = comparator as named in text (parent Thr101 or fluoro-derivative j)

c1ccc2c(c1)[I+]c1ccccc1-2 [DPI, diphenylene iodonium]
Luminescence relative to incubations containing DMSO vehicle alone ([1]; cell-free Nox2 assay, data not shown): less than 10%
Luminescence relative to DMSO-treated cells ([2]; neutrophils, 10 uM DPI, data not shown): less than 10%

COC(=O)c1ccc(-n2sc3ccccc3c2=O)cc1 [l]
Fold improvement in activity versus comparator compound [1, 15]: ~ 10 fold
Fold improvement in binding versus comparator compound [3, 15]: ~ 10 fold
IC50 ([3]; read-out: Potency in the binding assay, FP assay): 500 nM

O=c1c2ccccc2sn1-c1ccccc1 [Thr101]
IC50 ([1]; read-out: IC50 in the cell-free Nox2 activity assay, neutrophil membranes, 1% DMSO): 4000 nM and ~4000 nM
EC50 ([4]; read-out: EC50 for inhibition of Nox1 activity in whole cell assay, HEK/Nox1rb cells, ns = no significant inhibition): 3000 nM
IC50 ([3]; read-out: IC50 in the FP binding assay, rho-PRD plus GST-p47-bis-SH3, 1% DMSO): 4000 nM and ~4000 nM
EC50 [5]: 8000 nM
EC50 ([2]; read-out: EC50 for inhibition of Nox2 activity in whole cell assay, human neutrophils, ns = no significant inhibition): 300 nM

O=c1c2ccccc2[se]n1-c1ccccc1 [Ebselen]
IC50 [6]: ~1000 nM
EC50 [4]: 150 nM
Effect on protein-kinase-C-mediated phosphorylation of p47phox or other neutrophil proteins (words) [7]: did not affect
Effect on protein-kinase-C-mediated phosphorylation of p47phox or other neutrophil proteins (words) ([7]; listed as ebselen): does not inhibit PKC phosphorylation
Optimum concentration needed to catalyze H2O2 peroxidase activity [8]: about 20 μM
IC50 in the FP binding assay ([3]; rho-PRD plus GST-p47-bis-SH3, 1% DMSO): submicromolar
Effect on PMA-stimulated translocation of p47phox and p67phox ([9]; 500 nM PMA): completely blocked
Effect on translocation in the absence of PMA ([9]; no PMA): no effect on translocation
IC50 [10]: ~20000 nM
Inhibition of binding of MBP-p22-C and GST-p47-bis-SH3 in pulldown [11]: markedly inhibited
Effect on co-immunoprecipitation of p67phox with p47phox (words) [12]: did affect the ability of p67phox to coimmunoprecipitate with p47phox
Effect on co-immunoprecipitation of p67phox with p47phox (words) ([12]; listed as ebselen): diminishes the co-immunoprecipitation
Concentration inhibiting purified PKC enzyme [13]: submicromolar

rhodamine-PPTNPPPRPPAE-NH2 (reading uncertain) [rhodamine-labeled peptide corresponding to the PRD of p22phox (rho-PRD)]
Kd [14]: 20 to 40 nM and 20 nM
